According to patent US8158587B2, “Compound having histone deacetylase-inhibiting activity, and pharmaceutical composition comprising the compound as an active ingredient” (Kyushu Institute of Technology, priority 2006, dated 2012):

Columns and labels:
murine HDAC6 = target: T1, murine HDAC6 (Mus musculus, UniProt Q9Z2V5); experiment: HDAC-inhibiting activity, coumarin-labeled acetylated histone peptide assay; assay type: biochemical; settings: murine HDAC6 from transfected 293T cells; 37° C., 30 minutes
T1 construct: made in house; host or cells: 293T cells (transient transfection, anti-FLAG immunoprecipitation, FLAG peptide elution)
T1 sequence (Q9Z2V5 1-1149): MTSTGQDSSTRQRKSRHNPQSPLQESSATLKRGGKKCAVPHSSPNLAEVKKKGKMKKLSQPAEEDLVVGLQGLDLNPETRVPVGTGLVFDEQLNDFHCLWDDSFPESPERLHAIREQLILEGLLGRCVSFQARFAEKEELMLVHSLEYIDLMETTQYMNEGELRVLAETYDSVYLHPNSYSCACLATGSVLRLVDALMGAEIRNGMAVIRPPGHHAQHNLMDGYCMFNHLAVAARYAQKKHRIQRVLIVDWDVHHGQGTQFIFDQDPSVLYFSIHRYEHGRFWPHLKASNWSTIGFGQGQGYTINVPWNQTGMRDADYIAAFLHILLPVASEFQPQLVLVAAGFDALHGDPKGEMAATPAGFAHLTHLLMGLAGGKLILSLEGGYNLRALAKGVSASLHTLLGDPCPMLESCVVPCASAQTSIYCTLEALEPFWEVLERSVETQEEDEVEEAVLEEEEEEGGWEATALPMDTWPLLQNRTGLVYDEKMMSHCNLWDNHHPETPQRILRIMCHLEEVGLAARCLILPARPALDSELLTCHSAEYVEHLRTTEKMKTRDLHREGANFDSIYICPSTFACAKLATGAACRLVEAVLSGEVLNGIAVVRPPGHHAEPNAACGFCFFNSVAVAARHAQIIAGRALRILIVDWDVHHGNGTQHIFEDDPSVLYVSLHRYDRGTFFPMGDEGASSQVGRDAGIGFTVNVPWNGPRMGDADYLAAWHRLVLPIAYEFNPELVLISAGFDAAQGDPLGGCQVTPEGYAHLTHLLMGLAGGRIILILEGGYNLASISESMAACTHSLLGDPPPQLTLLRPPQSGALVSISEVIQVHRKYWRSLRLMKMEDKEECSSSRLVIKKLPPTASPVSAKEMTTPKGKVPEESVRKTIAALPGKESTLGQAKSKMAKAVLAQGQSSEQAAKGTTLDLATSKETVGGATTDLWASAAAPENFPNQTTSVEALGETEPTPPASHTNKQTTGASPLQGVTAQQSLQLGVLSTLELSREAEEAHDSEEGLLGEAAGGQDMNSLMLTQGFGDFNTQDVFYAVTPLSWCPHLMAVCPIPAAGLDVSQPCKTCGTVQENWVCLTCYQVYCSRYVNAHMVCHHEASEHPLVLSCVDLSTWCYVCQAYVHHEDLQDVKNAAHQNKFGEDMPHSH
Procedure: (§1) In carrying out HDAC-inhibiting activity measurements, HDAC solutions were prepared in the following manner. In each 100-mm dish, there were sowed 1×10^7 293T cells and, after 24 hours, they were transfected with a vector (5 μg) expressing human HDAC1 or HDAC4 or murine HDAC6 using the LipofectAmine 2000 reagent (Invitrogen). The human HDAC1 expression vector used was pcDNA3-HD1 (Yang, W. M., Yao, Y. L., Sun, J. M., Davie, J. R. & Seto, E. (1997) J. Biol. Chem. 272, 28001-28007), the human HDAC4 expression vector used was pcDNA3-HD4 (Fischle, W., Emiliani, S., Hendzel, M. J., Nagase, T., Nomura, N., Voelter, W. & Verdin, E. (1999) J. Biol. Chem. 274, 11713-11720), and the murine HDAC6 expression vector used was pcDNA3-mHDA2/HDAC6 (Verdel, A. & Khochbin, S. (1999) J. Biol. Chem. 274, 2440-2445).
(§2) After 24 hours of incubation, cells were recovered, washed with PBS, suspended in lysis buffer (50 mM Tris-HCl (pH 7.5), 120 mM NaCl, 5 mM EDTA, 0.5% Nonidet P-40), and sonicated. The supernatant was collected by centrifugation and then deprived of nonspecific proteins using Protein A/G plus agarose beads (Santa Cruz Biotechnologies, Inc.). Thereafter, anti-FLAG M2 antibody (Sigma-Aldrich Inc.) was added, and the reaction was allowed to proceed at 4° C. for 2 hours.
(§3) To this were added agarose beads, the reaction was allowed to proceed at 4° C. for 3 hours, and the agarose beads were washed three times with lysis buffer and then once with HD buffer (20 mM Tris-HCl (pH 8.0), 150 mM NaCl, 10% glycerol). The protein bound to the agarose beads was recovered by 1 hour of incubation with FLAG peptide (40 μg) (Sigma-Aldrich Inc.) in HD buffer (200 μl) at 4° C., and the liquid recovered was used, as a reactant solution, in the HDAC-inhibiting activity measurement described below.
(§4) HDAC-inhibiting activity evaluation in each in vitro system was made as follows. Each test compound was dissolved in DMSO, a stock solution with a concentration of 10 mM was thus prepared and this was used as an inhibitor stock solution. The assay was carried out by incubating the HDAC solution and a coumarin-labeled acetylated histone peptide solution in the presence of the test compound at 37° C. for 30 minutes (reaction volume 20 μl). To the reaction mixture was added 30 μl of trypsin, and the aminomethylcoumarin released by the enzymatic reaction was assayed using a fluorescent plate reader. In a negative control assay, no inhibitor was added to the reaction system and the same procedure was carried out.

human HDAC1 = target: T2, human HDAC1 (Homo sapiens, UniProt Q13547); experiment: as above; assay type: biochemical; settings: human HDAC1 from transfected 293T cells; 37° C., 30 minutes
T2 construct: made in house; host or cells: 293T cells (transient transfection, anti-FLAG immunoprecipitation, FLAG peptide elution)
Procedure: as §1, §2, §3, §4

T2 sequence (Q13547 whole entry): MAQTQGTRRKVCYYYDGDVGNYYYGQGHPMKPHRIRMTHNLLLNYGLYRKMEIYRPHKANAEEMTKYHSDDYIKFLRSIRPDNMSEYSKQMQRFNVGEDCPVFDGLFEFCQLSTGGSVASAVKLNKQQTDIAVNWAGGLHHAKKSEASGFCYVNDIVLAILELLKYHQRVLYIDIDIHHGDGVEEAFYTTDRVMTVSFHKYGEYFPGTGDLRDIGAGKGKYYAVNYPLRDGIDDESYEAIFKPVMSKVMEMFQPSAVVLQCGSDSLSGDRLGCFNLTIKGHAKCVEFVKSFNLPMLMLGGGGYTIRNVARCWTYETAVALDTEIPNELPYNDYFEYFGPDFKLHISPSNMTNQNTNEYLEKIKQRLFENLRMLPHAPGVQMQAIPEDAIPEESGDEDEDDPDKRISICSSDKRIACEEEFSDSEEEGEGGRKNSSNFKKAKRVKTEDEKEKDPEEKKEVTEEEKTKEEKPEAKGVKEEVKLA

## CC1(C)NC(=O)[C@H](CCCCCSCc2ccncc2)NC(=O)[C@H]2CCCN2C(=O)[C@H](Cc2ccccc2)NC1=O [Ky-26, cyclo(-L-Am7(4-pyridylmethyl)-Aib-L-Phe-D-Pro-)]
Murine HDAC6
  IC50: 1.4 µM
Human HDAC1
  IC50: 0.05 µM
